The values below come from patent US20250302773A1, “CO[…] AND N-ACYLETH[…] USES THEREOF” (CLEARMIND MEDICINE INC., priority 2022, published 2025).

For data set [1], the system named is C57BL/6 mice. Briefly: Intermittent access to 20% Alcohol in two-bottle choice (IA2BC) model: alcohol consumption. It is filed as in vivo. The method, then:
The principle of the study is based on Intermittent access to 20% Alcohol in two-bottle choice (IA2BC) model in mice. The mice were provided during the whole Study with two bottles: one bottle of water, and another bottle of 20% ethanol solution, which were removed and replaced after 24 hours with another buttle of water, for additional 24 hours. In total, the mice were subjected to 20% ethanol 24 hours, three times a week, for seven-eight weeks (21-22 alcohol consumption days).
The alcohol consumption was measured after each 24 of alcohol exposure (by weighing the alcohol buttle before and after). Following four weeks of intermittent access to 20% alcohol the mice were allocated to groups according to their alcohol consumption, to achieve balanced groups. To examine the effect of treatment in reducing alcohol consumption, mice were treated with the Test Item/s or Vehicle daily during weeks 6-7/8. […]
Animal alcohol and water consumption was recorded for each cage and was done for a 24±2 hours period starting at Day 1, three times a week thereafter until the end of the Study.
Intermittent access to 20% Alcohol in two-bottle choice (IA2BC) model in mice. The mice were subjected to 20% ethanol 24 hours, three times a week, for five weeks (15 alcohol consumption days), and the alcohol consumption was measured by weight. […]

Data set [2] deals with C57BL/6 mice. Briefly: Alcohol preference (alcohol / total fluids) in the IA2BC study. Format: in vivo. The procedure: The mean alcohol preference, which was defined as the ratio between alcohol weight (g/kg/24 h) divided by the total weight of water and alcohol consumed by the animals (g/kg/24 h) was evaluated.
Data set [3] in a line: Body weight in the IA2BC study. Format: in vivo, mice. The note with it: group 4F (MEAI mid dose, 60 mg/kg), only during Day 40 of cycle 1; *p<0.05. The procedure:
Body weight was recorded upon arrival, before study initiation, three times a week thereafter and at termination.
Body weight (BW) was monitored every other day in all animals of all groups.

For data set [4], the system named is C57BL/6 mice. Briefly: Mortality and gross pathology in the IA2BC study. Format: in vivo. The procedure:
Morbidity and mortality checks were performed daily. Animals that were sacrificed during the study were considered for the interpretation of study results as animals that died during the study. In case of mortality before the study's scheduled termination, gross pathology evaluation was performed as close as possible to the time of death. The time of death was recorded as precisely as possible.
Observations documented any irregularities, such as changes in local injection site, skin, fur, eyes, mucous membranes, respiratory, occurrence of secretions and excretions (e.g. diarrhea) and autonomic activity (e.g. lacrimation, salivation, piloerection, pupil size, unusual respiratory pattern). Changes in gait, posture, and response to handling, as the presence of bizarre behavior, tremors, convulsions, sleep, and coma were also included. All observed abnormalities, toxic signs, moribund condition, and pre-terminal deaths were recorded.
The animals were evaluated for macroscopic findings during gross pathology.

Data set [5] deals with C57BL/6 mice. Briefly: Food consumption in the IA2BC study. It is filed as in vivo. The note with it: cycle 2, Group 7F, MEAI/PEA 0/25 mg/kg. The method, then: Animal food consumption was performed twice before first dosing (during alcohol addition, and without alcohol addition), during dosing period at each alcohol addition (six times in total) and before termination (without alcohol addition).
The Food consumption was recorded in each cage for a […] period. Determinations of food consumption (calculated value) were based on a provided diet placed in hoppers and the remaining unused diet weighed.
Food consumption was monitored per each mouse in each individual cage for 24 h during Alcohol addition time, by measuring the weight of food before and after 24 hours. The consumption of food was measured during all MEAI treatment days, in both cycles. The mean value for each group during each consumption day was calculated as fold change from baseline (i.e. food consumption measured before MEAI treatment), per each animal. The fold change values of each MEAI/PEA treated group was compared to the vehicle groups (1F/6F/7F) and statistical analysis was performed.

Take `COc1ccc2c(c1)CC(N)C2` (centres unmarked) [MEAI, 5-methoxy-2-aminoindan]: in the data set on C57BL/6 mice [1] (MEAI 20-100 mg/kg PO daily, weeks 6-7/8, treated vs control), the “reducing alcohol consumption of the treated animals” value is given as “significant dose dependent effect”. Moreover, in the data set with C57BL/6 mice [1] (cycle 1, MEAI at a dose of 40 mg/kg and at higher doses PO, mean of six alcohol days, ** p<0.01, *** p<0.001), the “alcohol consumption during treatment compared to consumption before treatment” value was “significantly reduced”. For the same compound, in the data set with C57BL/6 mice [2] (cycle 1, 100 mg/kg MEAI), the “reduction of alcohol preference compared to control, significance” value is “statistically significant”. Further, the “mean alcohol preference compared to control groups” value in the data set on C57BL/6 mice [2] (cycle 1, MEAI 20-100 mg/kg) is on record as “reduced in a dose dependent manner”. The “body weight compared to control group” value in data set [3] was “significantly lower”. Also, the mortality result in the data set with C57BL/6 mice [4] (high doses treated groups, after prolonged alcohol consumption) is “four”. In addition, in the data set with C57BL/6 mice [4] (observed in all groups including vehicle treated), the “gross pathology findings in liver, kidneys, heart and spleen (bright color and/or enlarged)” value was “most likely related to the alcohol consumption and not to the MEAI treatment”.
Consider `CCCCCCCCCCCCCCCC(=O)NCCO` [PEA, N-(2-hydroxyethyl) hexadecanamide], for which the “reduction of food consumption compared to own baseline” value in the data set with C57BL/6 mice [5] was 22%.
